Converted amounts (≈) assume the structure as drawn.

This data set can be described thus: water-solubility of the product.

As for `CC1(C)OC(C2OC(C)(C)O[C@H]2C(=O)NCCO)[C@@H](C(=O)NCCO)O1` (some centres unmarked) [GalX-di-ethanolamide], the water-solubility entry (in water, at ambient temperature) is reported as “approximately 25 wt. %”. Further, the solubility – broadly, how much of the substance goes into solution per volume – (water) was approximately 350 mg/mL (≈ 930 mM).
